Data from ChEMBL document CHEMBL3232771, “Synthesis and positive inotropic evaluation of [1,2,4]triazolo[3,4-a]phthalazine and tetrazolo[5,1-a]phthalazine derivatives bearing substituted piperazine moieties” (2014).
Active and inactive are the calls of the source. The calls are words filed in the database; no cut-off is given here.

Assays:
Heart = assay: Positive inotropic activity in rabbit heart assessed as increase in left atrium stroke volume at 3 X 10^-5 M; type: functional, Oryctolagus cuniculus, Cardiac atrium
Oryctolagus cuniculus [1] = species on record: Oryctolagus cuniculus; assay: Positive inotropic activity in perfused beating rabbit atrium assessed as increase in stroke volume at 30 umol/l relative to control; type: functional, tissue-based; details: Cardiac atrium
Oryctolagus cuniculus [2] = species on record: Oryctolagus cuniculus; assay: Positive inotropic activity in perfused rabbit atrium assessed as increase in stroke volume at 1 X 10^-5 to 10^-4 M relative to control; details: Cardiac atrium
Oryctolagus cuniculus [3] = species on record: Oryctolagus cuniculus; assay: Positive inotropic activity in perfused rabbit atrium assessed as increase in stroke volume at 30 umol/l in presence of L-type Ca2+ channel blocker nifedipine relative to control; type: functional, tissue-based; details: Cardiac atrium
Oryctolagus cuniculus [4] = species on record: Oryctolagus cuniculus; assay: Positive inotropic activity in perfused rabbit atrium assessed as increase in stroke volume at 30 umol/l in presence of PKA inhibitor H-89 relative to control; type: functional, tissue-based; details: Cardiac atrium
Oryctolagus cuniculus [5] = species on record: Oryctolagus cuniculus; assay: Positive inotropic activity in perfused rabbit atrium assessed as increase in stroke volume at 30 umol/l in presence of adenylate cyclase activator forskolin relative to control; type: functional, tissue-based; details: Cardiac atrium
[6] = Oryctolagus cuniculus, Cardiac atrium

COc1ccc(CN2CCN(c3nn4nnnc4c4ccccc34)CC2)cc1
Activity (Heart): 12.02%

O=C(c1ccc(Br)cc1)N1CCN(c2nn3cnnc3c3ccccc23)CC1
Activity (Oryctolagus cuniculus [1]): Active
Activity (Heart): 3.65%

Cc1ccc(/C=C/C(=O)N2CCN(c3nn4nnnc4c4ccccc34)CC2)cc1
Activity (Oryctolagus cuniculus [1]): Active
Activity (Heart): 2.74%

O=C(c1ccc(Cl)cc1)N1CCN(c2nn3nnnc3c3ccccc23)CC1
Activity (Heart): 2.05%

COc1cccc(/C=C/C(=O)N2CCN(c3nn4cnnc4c4ccccc34)CC2)c1
Activity (Oryctolagus cuniculus [1]): Active
Activity (Heart): 4.13%

O=C(c1ccc(Br)cc1)N1CCN(c2nn3nnnc3c3ccccc23)CC1
Activity (Oryctolagus cuniculus [1]): Active
Activity (Heart): 7.49%

O=C(c1cccc(Br)c1)N1CCN(c2nn3nnnc3c3ccccc23)CC1
Activity (Heart; [6]): inactive

O=C(c1ccc(F)cc1)N1CCN(c2nn3nnnc3c3ccccc23)CC1
Activity (Oryctolagus cuniculus [1]): Active
Activity (Heart): 4.73%

O=C(/C=C/c1cccc(Cl)c1)N1CCN(c2nn3cnnc3c3ccccc23)CC1
Activity (Heart; [6]): inactive

O=C(c1ccc(F)cc1)N1CCN(c2nn3cnnc3c3ccccc23)CC1
Activity (Oryctolagus cuniculus [1]): Active
Activity (Heart): 2.91%

O=C(c1ccccc1)N1CCN(c2nn3cnnc3c3ccccc23)CC1
Activity (Heart; [6]): inactive

O=C(/C=C/c1ccc(Br)cc1)N1CCN(c2nn3cnnc3c3ccccc23)CC1
Activity (Heart; [6]): inactive

O=C(/C=C/c1ccccc1)N1CCN(c2nn3nnnc3c3ccccc23)CC1
Activity (Oryctolagus cuniculus [1]): Active
Activity (Heart): 8.09%

Cc1ccc(/C=C/C(=O)N2CCN(c3nn4cnnc4c4ccccc34)CC2)cc1
Activity (Oryctolagus cuniculus [2]): Active
Activity (Oryctolagus cuniculus [1]): Active
Activity (Heart): 14.87%

COc1ccc(C(=O)N2CCN(c3nn4cnnc4c4ccccc34)CC2)cc1
Activity (Oryctolagus cuniculus [1]): Active
Activity (Heart): 3.68%

Cc1[nH]c(=O)c(C#N)cc1-c1ccncc1 [MILRINONE]
Activity (Heart): 2.46%

O=C(/C=C/c1ccc(Cl)cc1)N1CCN(c2nn3nnnc3c3ccccc23)CC1
Activity (Heart; [6]): inactive

O=C(c1ccccc1)N1CCN(c2nn3nnnc3c3ccccc23)CC1
Activity (Heart; [6]): inactive

COc1cccc(/C=C/C(=O)N2CCN(c3nn4nnnc4c4ccccc34)CC2)c1
Activity (Oryctolagus cuniculus [1]): Active
Activity (Heart): 5.35%

O=C(c1ccc(Cl)cc1)N1CCN(c2nn3cnnc3c3ccccc23)CC1
Activity (Oryctolagus cuniculus [1]): Active
Activity (Heart): 13.33%

COc1ccc(C(=O)N2CCN(c3nn4nnnc4c4ccccc34)CC2)cc1
Activity (Oryctolagus cuniculus [1]): Active
Activity (Heart): 9.39%

O=C(c1cccc(Cl)c1)N1CCN(c2nn3cnnc3c3ccccc23)CC1
Activity (Oryctolagus cuniculus [1]): Active
Activity (Heart): 2.56%

O=C(/C=C/c1cccc(Br)c1)N1CCN(c2nn3nnnc3c3ccccc23)CC1
Activity (Heart; [6]): inactive

Cc1ccc(C(=O)N2CCN(c3nn4nnnc4c4ccccc34)CC2)cc1
Activity (Oryctolagus cuniculus [1]): Active
Activity (Heart): 13.46%

O=C(/C=C/c1ccc(F)cc1)N1CCN(c2nn3nnnc3c3ccccc23)CC1
Activity (Heart; [6]): inactive

O=C(/C=C/c1cccc(Br)c1)N1CCN(c2nn3cnnc3c3ccccc23)CC1
Activity (Heart; [6]): inactive

O=C(/C=C/c1ccc(Cl)cc1)N1CCN(c2nn3cnnc3c3ccccc23)CC1
Activity (Heart; [6]): inactive

O=C(c1cccc(Br)c1)N1CCN(c2nn3cnnc3c3ccccc23)CC1
Activity (Oryctolagus cuniculus [1]): Active
Activity (Heart): 8.49%

COc1cccc(C(=O)N2CCN(c3nn4nnnc4c4ccccc34)CC2)c1
Activity (Heart): 1.94%

COc1cccc(C(=O)N2CCN(c3nn4cnnc4c4ccccc34)CC2)c1
Activity (Heart): 0.95%

O=C(/C=C/c1ccc(Br)cc1)N1CCN(c2nn3nnnc3c3ccccc23)CC1
Activity (Heart; [6]): inactive

O=C(/C=C/c1ccc(F)cc1)N1CCN(c2nn3cnnc3c3ccccc23)CC1
Activity (Heart; [6]): inactive

O=C(/C=C/c1ccccc1)N1CCN(c2nn3cnnc3c3ccccc23)CC1
Activity (Heart; [6]): inactive

O=C(c1cccc(Cl)c1)N1CCN(c2nn3nnnc3c3ccccc23)CC1
Activity (Heart): 0.23%

O=C(/C=C/c1cccc(Cl)c1)N1CCN(c2nn3nnnc3c3ccccc23)CC1
Activity (Heart; [6]): inactive

Cc1ccc(C(=O)N2CCN(c3nn4cnnc4c4ccccc34)CC2)cc1
Activity (Oryctolagus cuniculus [2]): Active
Activity (Oryctolagus cuniculus [3]): inactive
Activity (Oryctolagus cuniculus [1]): Active
Activity (Oryctolagus cuniculus [4]): inactive
Activity (Heart): 19.15%
Activity (Oryctolagus cuniculus [5]): Active
